Measurements reported in patent US7879789B2, “Surfactant and composition containing the same” (priority 2006, dated 2011).

Assay: Emulsion stability of Table 1 blending compositions with various emulsifiers
Assay type: physicochemical
Settings: storage at low temperature; Table 2
Experimental: The present inventors have prepared various polyoxyalkylene substitution compounds according to the respective synthesis examples and evaluated the emulsion stability for the blending compositions shown in Table 1. The various evaluation items are as follows. “Emulsion Stability” The oil phase component, water phase component, and various emulsifiers shown in Table 1 were mixed, and the emulsification mixing was carried out with a homomixer at 8000 rpm for 1 minute. The appearance was visually observed 30 minutes after emulsification, and the appearances were also observed after being stored for 3 days on standing at room temperature and also at −5° C., respectively. The evaluation criteria were as follows. • ◯ . . . The emulsion was uniform and milky white. • Δ . . . A small amount of floating oil was observed; however, it was milky white. • X . . . Solid matter was observed, or the separation of the water phase and the oil phase was observed.

Structure (SMILES)	emulsion stability at low temperature (in words)
CCCCCCCCCCCCOS(=O)(=O)[O-].[Na+] [Comparative Examples 1-1, Dodecyl sodium sulfate]	the emulsifier separated out
CCCCCCCCCCCC(=O)N[C@@H](CCC(=O)[O-])C(=O)[O-].[Na+].[Na+] [1-2, Sodium lauroyl-glutamate]	the emulsifier separated out
